Experimental data from ChEMBL document CHEMBL3879901, “Substituted isoquinolin-1(2H)-ones, and methods of use thereof” (2012).
Active and inactive are the calls of the source. The calls are words filed in the database; no cut-off is given here.

How the values were obtained:
[1] = target: Phosphatidylinositol 3-kinase (Mus musculus) (UniProt P26450+P42337); assay: Inhibition of PI3K in mouse unfractionated splenocytes assessed as decrease in anti-CD3-stimulated Akt phosphorylation at S473 preincubated for 15 mins followed by anti-CD3 stimulation measured after 5 to 15 mins by phosflow method; type: cell-based
[2] = target: PI3-kinase class I (Homo sapiens) (UniProt P27986+P42338+P48736+P42336+O00459+O00329+Q8WYR1+Q92569); assay: Inhibition of PI3K in human PBMC assessed as decrease in anti-CD3-stimulated Akt phosphorylation at S473 preincubated for 15 mins followed by anti-CD3 stimulation measured after 5 to 15 mins by phosflow method
[3] = target: RAC-alpha serine/threonine-protein kinase (Mus musculus) (UniProt P31750); assay: […] of anti-CD3-stimulated Akt phosphorylation in mouse unfractionated splenocytes preincubated for 15 mins followed by anti-CD3 stimulation measured after 5 to 15 mins by phosflow method; type: cell-based
[4] = target: RAC-alpha serine/threonine-protein kinase (Homo sapiens) (UniProt P31749); assay: […] of anti-CD3-stimulated Akt phosphorylation in human PBMC preincubated for 15 mins followed by anti-CD3 stimulation measured after 5 to 15 mins by phosflow method
[5] = target: PI3K p110 beta/p85 alpha (Homo sapiens, UniProt P42338); assay: Inhibition of N-terminal His6-tagged recombinant full-length human p110beta/untagged recombinant full length p85alpha expressed in baculovirus infected Sf21 cells using phosphatidylinositol as substrate in presence of gamma-32P-ATP after 5 mins by thin layer chromatographic method
[6] = test system: Rattus norvegicus; assay: Antiarthritic activity in type 2 collagen-induced Lewis rat arthritis model assessed as reduction in ankle diameter at 10 to 60 mg/kg, po administered every 12 hrs for 16 days measured on day 9 of compound dosing to day 17 of post last dose relative to vehicle-treated control; type: functional, organism-based
[7] = test system: Rattus norvegicus; assay: Antiarthritic activity in type 2 collagen-induced po dosed Lewis rat arthritis model assessed as reduction in knee inflammation administered every 12 hrs for 16 days measured on day 17 of post last dose by toluidine blue staining-based assay; type: functional, organism-based
[8] = test system: Rattus norvegicus; assay: Antiarthritic activity in type 2 collagen-induced po dosed Lewis rat arthritis model assessed as reduction in knee pannus administered every 12 hrs for 16 days measured on day 17 of post last dose by toluidine blue staining-based assay; type: functional, organism-based
[9] = test system: Rattus norvegicus; assay: Antiarthritic activity in type 2 collagen-induced po dosed Lewis rat arthritis model assessed as reduction in cartilage damage in knee administered every 12 hrs for 16 days measured on day 17 of post last dose by toluidine blue staining-based assay; type: functional, organism-based
[10] = test system: Rattus norvegicus; assay: Antiarthritic activity in type 2 collagen-induced po dosed Lewis rat arthritis model assessed as reduction in bone resorption in knee administered every 12 hrs for 16 days measured on day 17 of post last dose by toluidine blue staining-based assay; type: functional, organism-based
[11] = test system: Rattus norvegicus; assay: Antiarthritic activity in type 2 collagen-induced Lewis rat arthritis model assessed as reduction in serum anti-type 2 collagen levels at 60 mg/kg, po administered every 12 hrs for 16 days measured on day 17 of post last dose by ELISA relative to control; type: functional; set-up: scale not given: the % may be the effect or the level left
[12] = species: Homo sapiens; assay: Inhibition of allergen-induced activation of basophilic granulocytes in human whole blood preincubated for 20 mins followed by allergen induction measured after 20 mins using sub micromolar range of compound by basotest assay; type: functional, tissue-based
[13] = target: Phosphatidylinositol 4,5-bisphosphate 3-kinase catalytic subunit gamma isoform (Homo sapiens, UniProt P48736); assay: Inhibition of recombinant human C-terminal His6-tagged p110gamma expressed in insect cells using phosphatidylinositol as substrate in presence of gamma-32P-ATP after 5 mins by thin layer chromatographic method
[14] = target: PI3-kinase p110-delta/p85-alpha (Homo sapiens, UniProt O00329); assay: Inhibition of N-terminal His6-tagged recombinant full-length human p110delta/untagged recombinant full length p85alpha expressed in baculovirus infected Sf21 cells using phosphatidylinositol as substrate in presence of gamma-32P-ATP after 5 mins by thin layer chromatographic method
[15] = target: PI3-kinase p110-alpha/p85-alpha (Homo sapiens, UniProt P42336); assay: Inhibition of N-terminal His6-tagged recombinant full-length human p110alpha/untagged recombinant full length human p85alpha expressed in baculovirus infected Sf21 cells using phosphatidylinositol as substrate in presence of gamma-32P-ATP after 5 mins by thin layer chromatographic method
[16] = Antiproliferative activity against Balb/c mouse splenic B cells preincubated for 30 mins followed by LPS or F(ab')2 donkey anti-mouse IgM and recombinant mouse IL4 stimulation measured after 72 hrs by Alamar Blue reduction assay; type: functional, cell-based

Phosphatidylinositol 4,5-bisphosphate 3-kinase catalytic subunit gamma isoform, sequence (P48736 whole entry, canonical isoform): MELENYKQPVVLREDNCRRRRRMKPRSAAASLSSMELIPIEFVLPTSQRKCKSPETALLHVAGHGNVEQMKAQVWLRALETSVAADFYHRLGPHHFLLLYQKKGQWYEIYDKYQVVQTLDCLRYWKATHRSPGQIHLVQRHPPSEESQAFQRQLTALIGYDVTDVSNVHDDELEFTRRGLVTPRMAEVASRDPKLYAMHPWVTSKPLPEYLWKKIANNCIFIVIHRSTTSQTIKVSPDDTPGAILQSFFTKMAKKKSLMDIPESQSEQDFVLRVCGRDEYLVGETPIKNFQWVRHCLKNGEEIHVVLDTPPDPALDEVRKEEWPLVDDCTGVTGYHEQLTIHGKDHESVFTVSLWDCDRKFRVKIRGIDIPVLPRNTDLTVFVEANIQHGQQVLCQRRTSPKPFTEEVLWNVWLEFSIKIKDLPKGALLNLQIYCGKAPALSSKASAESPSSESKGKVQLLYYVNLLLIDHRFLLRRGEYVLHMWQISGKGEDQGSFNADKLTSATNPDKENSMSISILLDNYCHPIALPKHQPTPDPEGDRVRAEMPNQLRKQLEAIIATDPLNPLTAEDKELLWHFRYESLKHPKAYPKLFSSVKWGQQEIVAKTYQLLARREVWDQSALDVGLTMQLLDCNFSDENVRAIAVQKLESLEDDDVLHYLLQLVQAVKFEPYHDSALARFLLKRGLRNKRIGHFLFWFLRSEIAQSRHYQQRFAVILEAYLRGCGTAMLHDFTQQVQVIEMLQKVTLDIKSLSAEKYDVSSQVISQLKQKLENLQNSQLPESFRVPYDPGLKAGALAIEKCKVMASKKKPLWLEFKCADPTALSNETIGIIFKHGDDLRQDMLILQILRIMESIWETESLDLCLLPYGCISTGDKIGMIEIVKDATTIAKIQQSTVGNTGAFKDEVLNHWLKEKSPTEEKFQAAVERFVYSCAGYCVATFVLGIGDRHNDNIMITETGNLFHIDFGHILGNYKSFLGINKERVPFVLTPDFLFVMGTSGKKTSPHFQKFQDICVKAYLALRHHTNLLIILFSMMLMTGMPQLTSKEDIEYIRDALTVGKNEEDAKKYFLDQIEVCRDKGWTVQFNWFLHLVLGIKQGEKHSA
PI3K p110 beta/p85 alpha, sequence (P27986 whole entry): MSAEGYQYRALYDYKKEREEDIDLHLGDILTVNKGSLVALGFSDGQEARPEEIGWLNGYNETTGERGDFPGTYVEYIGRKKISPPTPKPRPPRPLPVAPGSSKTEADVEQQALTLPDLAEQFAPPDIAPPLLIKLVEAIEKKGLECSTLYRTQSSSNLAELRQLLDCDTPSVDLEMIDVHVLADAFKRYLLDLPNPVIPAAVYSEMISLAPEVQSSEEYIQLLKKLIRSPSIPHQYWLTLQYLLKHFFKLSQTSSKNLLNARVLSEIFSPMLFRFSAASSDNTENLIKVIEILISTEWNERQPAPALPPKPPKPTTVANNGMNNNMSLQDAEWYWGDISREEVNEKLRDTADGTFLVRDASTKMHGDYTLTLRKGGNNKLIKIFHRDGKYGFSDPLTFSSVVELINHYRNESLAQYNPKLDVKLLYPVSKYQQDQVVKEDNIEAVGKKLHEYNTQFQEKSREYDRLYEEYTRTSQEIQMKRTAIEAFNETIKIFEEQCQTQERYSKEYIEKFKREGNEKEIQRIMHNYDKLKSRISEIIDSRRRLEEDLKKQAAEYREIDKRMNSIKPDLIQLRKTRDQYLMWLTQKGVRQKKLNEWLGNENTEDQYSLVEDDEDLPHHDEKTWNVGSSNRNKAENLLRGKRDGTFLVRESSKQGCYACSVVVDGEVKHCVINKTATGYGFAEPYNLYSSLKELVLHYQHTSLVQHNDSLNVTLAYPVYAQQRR
PI3K p110 beta/p85 alpha, sequence (P42338 whole entry): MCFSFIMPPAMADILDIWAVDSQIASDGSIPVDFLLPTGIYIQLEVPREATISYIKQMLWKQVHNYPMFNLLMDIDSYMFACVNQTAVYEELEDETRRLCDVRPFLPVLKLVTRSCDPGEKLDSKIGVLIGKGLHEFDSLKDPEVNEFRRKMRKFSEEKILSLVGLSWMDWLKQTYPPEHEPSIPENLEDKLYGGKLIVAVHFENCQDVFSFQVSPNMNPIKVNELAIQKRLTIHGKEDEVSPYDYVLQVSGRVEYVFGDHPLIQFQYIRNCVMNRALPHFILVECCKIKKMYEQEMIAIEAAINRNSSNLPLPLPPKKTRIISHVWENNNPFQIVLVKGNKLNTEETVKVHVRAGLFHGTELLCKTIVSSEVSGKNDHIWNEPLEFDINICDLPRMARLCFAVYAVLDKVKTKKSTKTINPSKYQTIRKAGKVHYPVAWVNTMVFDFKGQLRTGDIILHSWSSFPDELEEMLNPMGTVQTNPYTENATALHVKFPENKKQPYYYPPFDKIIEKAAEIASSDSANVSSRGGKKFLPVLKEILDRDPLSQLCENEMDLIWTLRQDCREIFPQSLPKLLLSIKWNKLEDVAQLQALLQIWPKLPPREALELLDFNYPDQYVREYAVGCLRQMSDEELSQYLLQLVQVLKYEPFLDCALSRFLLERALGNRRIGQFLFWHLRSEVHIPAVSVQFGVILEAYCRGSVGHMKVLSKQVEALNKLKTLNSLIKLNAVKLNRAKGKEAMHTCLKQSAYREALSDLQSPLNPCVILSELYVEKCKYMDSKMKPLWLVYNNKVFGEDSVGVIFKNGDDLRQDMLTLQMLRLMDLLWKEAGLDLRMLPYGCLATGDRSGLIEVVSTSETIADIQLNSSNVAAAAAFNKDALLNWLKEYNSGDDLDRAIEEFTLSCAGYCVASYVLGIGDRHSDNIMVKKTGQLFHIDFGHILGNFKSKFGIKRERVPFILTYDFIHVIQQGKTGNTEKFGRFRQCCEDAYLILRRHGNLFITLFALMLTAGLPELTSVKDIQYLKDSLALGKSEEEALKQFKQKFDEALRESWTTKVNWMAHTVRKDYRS
PI3-kinase p110-alpha/p85-alpha, sequence (P27986 whole entry): as the sequence (P27986 whole entry) above
PI3-kinase p110-alpha/p85-alpha, sequence (P42336 whole entry): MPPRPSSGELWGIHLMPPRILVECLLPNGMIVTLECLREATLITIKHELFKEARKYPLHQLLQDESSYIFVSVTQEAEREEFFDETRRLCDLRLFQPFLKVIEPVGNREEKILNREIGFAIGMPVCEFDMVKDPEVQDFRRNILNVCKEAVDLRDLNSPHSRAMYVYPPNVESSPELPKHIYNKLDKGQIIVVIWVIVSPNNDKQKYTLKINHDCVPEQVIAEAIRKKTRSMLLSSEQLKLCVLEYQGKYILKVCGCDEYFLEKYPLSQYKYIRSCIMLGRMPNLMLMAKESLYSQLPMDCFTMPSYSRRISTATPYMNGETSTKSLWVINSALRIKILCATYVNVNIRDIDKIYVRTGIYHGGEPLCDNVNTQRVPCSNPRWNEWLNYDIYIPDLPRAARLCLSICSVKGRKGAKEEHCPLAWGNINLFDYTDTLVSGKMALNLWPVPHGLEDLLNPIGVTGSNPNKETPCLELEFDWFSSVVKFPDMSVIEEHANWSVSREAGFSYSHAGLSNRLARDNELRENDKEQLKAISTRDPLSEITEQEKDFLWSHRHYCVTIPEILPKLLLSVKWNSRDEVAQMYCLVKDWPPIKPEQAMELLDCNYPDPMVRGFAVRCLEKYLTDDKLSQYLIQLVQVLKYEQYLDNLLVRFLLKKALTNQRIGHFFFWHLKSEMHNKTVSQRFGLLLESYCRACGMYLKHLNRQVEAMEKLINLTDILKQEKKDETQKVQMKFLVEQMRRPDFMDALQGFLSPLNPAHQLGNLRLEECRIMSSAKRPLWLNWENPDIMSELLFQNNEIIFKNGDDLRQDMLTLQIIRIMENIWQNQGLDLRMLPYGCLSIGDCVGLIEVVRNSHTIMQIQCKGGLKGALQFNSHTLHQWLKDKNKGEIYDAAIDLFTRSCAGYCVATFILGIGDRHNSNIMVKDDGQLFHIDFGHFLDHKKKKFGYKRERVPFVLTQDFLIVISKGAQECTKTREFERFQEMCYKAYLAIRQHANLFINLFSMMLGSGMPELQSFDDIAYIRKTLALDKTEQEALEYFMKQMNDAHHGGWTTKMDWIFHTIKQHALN
PI3-kinase p110-delta/p85-alpha, sequence (P27986 whole entry): as the sequence (P27986 whole entry) above
PI3-kinase p110-delta/p85-alpha, sequence (O00329 whole entry): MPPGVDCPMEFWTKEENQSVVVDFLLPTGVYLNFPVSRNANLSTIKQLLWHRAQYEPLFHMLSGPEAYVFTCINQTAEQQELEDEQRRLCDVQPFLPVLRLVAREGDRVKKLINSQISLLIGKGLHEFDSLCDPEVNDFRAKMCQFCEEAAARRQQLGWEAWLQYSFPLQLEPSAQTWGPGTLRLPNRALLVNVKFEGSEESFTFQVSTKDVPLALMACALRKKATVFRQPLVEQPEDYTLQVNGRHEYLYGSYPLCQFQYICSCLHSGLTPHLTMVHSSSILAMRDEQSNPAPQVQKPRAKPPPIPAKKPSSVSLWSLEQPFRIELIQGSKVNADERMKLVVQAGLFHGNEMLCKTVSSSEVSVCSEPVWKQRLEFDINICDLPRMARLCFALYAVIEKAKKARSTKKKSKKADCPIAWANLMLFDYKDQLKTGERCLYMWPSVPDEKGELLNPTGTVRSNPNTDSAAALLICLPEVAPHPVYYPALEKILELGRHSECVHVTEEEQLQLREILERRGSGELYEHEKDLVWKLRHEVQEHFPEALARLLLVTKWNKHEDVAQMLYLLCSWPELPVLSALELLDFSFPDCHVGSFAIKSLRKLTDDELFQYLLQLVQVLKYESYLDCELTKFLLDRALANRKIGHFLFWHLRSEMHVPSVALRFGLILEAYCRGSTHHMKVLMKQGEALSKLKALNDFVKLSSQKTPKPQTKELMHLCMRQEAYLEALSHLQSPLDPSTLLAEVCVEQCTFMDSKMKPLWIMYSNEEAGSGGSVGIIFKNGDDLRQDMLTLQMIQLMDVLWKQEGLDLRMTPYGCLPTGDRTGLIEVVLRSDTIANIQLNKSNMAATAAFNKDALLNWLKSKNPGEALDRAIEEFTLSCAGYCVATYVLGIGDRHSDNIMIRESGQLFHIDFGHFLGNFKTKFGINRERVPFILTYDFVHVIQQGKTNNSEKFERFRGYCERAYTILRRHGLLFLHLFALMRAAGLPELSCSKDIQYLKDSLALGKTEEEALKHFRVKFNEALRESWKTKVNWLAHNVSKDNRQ

IC50 [5] | IC50 [13] | IC50 [14] | IC50 [15] | SMILES | EC50 [16] | other results
 |  |  |  | CO[C@H]1C[C@@H]2CC[C@@H](C)[C@@](O)(O2)C(=O)C(=O)N2CCCC[C@H]2C(=O)O[C@H]([C@H](C)C[C@@H]2CC[C@@H](O)[C@H](OC)C2)CC(=O)[C@H](C)/C=C(\C)[C@@H](O)[C@@H](OC)C(=O)[C@H](C)C[C@H](C)/C=C/C=C/C=C/1C |  | inhibition [1]: Active; inhibition [2]: Active; Activity [3]: Active; Activity [4]: Active
> 10 µM | < 1 µM | < 0.1 µM | > 10 µM | Cc1cccnc1-n1c(Cn2nc(-c3cccc(O)c3)c3c(N)ncnc32)cc2cccc(C)c2c1=O | < 0.1 µM | 
> 10 µM | < 10 µM | < 0.1 µM | > 10 µM | Cc1cccc2cc(Cn3nc(I)c4c(N)ncnc43)n(C3CCC3)c(=O)c12 | < 1 µM | 
> 10 µM | < 1 µM | < 0.1 µM | > 10 µM | Cc1cccc2cc(Cn3nc(-c4ccc(F)c(O)c4)c4c(N)ncnc43)n(-c3ccccc3F)c(=O)c12 | < 1 µM | 
> 10 µM | < 1 µM | < 0.1 µM | > 10 µM | Cc1cccc2cc(Cn3nc(-c4cccc(O)c4)c4c(N)ncnc43)n(-c3ccccc3OCCN3CCOCC3)c(=O)c12 | < 0.1 µM | 
> 10 µM | > 10 µM | < 1 µM | > 10 µM | Cc1ccccc1-n1c(Cn2nc(C#C[C@@H](C)O)c3c(N)ncnc32)cc2cccc(F)c2c1=O | < 10 µM | 
> 10 µM | < 1 µM | < 0.1 µM | > 10 µM | C=Cc1nn(Cc2cc3cccc(C)c3c(=O)n2-c2ccccc2C)c2ncnc(N)c12 | < 0.1 µM | 
> 10 µM | < 1 µM | < 0.1 µM | > 10 µM | Cc1cccc2cc(Cn3nc(I)c4c(N)ncnc43)n(-c3ccccc3OCCN3CCOCC3)c(=O)c12 | < 1 µM | 
> 10 µM | < 10 µM | < 0.1 µM | > 10 µM | Cc1ccccc1-n1c(Cn2nc(C#C[C@@H](C)O)c3c(N)ncnc32)cc2cccc(C)c2c1=O | < 0.1 µM | 
> 10 µM | < 1 µM | < 10 µM | > 10 µM | Cc1ccccc1-n1c(Cn2nc(-c3cccc(Cl)c3)c3c(N)ncnc32)cc2cccc(C)c2c1=O | < 10 µM | 

SMILES | IC50 [5] | IC50 [13] | IC50 [14] | IC50 [15] | EC50 [16] | other results
Cc1ccccc1-n1c(Cn2nc(-c3cc(O)cc(F)c3)c3c(N)ncnc32)cc2cccc(C)c2c1=O | < 1 µM |  |  |  |  | Activity [6]: Active; Activity [7]: Dose-dependent effect; Activity [8]: Dose-dependent effect; Activity [9]: Dose-dependent effect; Activity [10]: Dose-dependent effect; Activity [11]: 24%; inhibition [12]: Active
